Drawing on patent EP3478687B1 (Daewoong Pharmaceutical Co., Ltd., priority 2016, dated 2018), this text covers IC50 for 21 compounds.

In assay [1] the target is T1, Recombinant purified human BTK (Homo sapiens, UniProt Q06187).
T1 construct: purchased Promega V9071
The assay is described as follows: BTK kinase inhibitory activity, ADP-Glo kinase assay (Promega V9071). The assay is classed as biochemical. The note with it: ATP 10 uM, 8 ng BTK per reaction, 1 hour 30 °C, chemiluminescence. The procedure, abridged:
(§1)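 Recombinant human kinases in Tris pH 7.5 buffer with MgCl2, BSA and DTT (MnCl2 added for BTK), 4 ng JAK3 or 8 ng BTK per reaction. Poly(Glu4,Tyr1) 0.2 µg/µL with 5 µM (JAK3) or 10 µM (BTK) ATP, 1% DMSO, 1 h at 30 °C. ADP-Glo luminescence used to derive IC50.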
(ADP-Glo turns the ADP formed in a reaction into a luminescent signal.)

The target in assay [2] is T2, Recombinant purified human JAK3 (Homo sapiens, UniProt P52333).
T2 construct: purchased Promega V9441
T2 sequence (P52333 1-1124): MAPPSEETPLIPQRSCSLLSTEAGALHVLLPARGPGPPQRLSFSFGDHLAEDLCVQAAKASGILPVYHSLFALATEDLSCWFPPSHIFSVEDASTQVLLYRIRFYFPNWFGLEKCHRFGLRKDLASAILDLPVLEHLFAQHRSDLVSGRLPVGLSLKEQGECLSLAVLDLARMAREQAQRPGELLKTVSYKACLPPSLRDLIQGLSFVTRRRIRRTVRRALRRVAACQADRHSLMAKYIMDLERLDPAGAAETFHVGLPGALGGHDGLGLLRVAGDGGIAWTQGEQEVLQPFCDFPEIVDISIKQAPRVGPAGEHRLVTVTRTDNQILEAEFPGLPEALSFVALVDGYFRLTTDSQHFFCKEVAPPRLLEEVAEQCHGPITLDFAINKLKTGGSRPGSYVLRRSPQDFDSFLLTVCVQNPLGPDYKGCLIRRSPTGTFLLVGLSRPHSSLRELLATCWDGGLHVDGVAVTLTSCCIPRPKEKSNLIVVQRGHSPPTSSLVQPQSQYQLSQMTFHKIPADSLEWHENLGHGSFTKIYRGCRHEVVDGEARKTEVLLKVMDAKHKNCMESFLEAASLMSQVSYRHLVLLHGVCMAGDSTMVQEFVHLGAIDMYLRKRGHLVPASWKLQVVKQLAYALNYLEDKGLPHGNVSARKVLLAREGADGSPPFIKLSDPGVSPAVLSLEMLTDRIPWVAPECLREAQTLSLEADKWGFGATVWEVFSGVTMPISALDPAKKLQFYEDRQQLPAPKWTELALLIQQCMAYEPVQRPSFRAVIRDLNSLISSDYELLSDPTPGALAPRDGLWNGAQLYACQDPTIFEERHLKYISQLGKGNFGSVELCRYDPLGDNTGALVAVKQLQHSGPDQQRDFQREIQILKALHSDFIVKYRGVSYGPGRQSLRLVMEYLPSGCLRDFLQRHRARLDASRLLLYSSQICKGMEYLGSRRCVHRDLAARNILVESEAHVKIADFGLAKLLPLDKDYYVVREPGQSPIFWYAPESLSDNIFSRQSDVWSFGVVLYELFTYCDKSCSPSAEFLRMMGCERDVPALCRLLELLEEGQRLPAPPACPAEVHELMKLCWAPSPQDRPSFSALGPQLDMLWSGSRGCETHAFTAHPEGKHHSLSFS
The assay is described as follows: JAK3 kinase inhibitory activity, ADP-Glo kinase assay (Promega V9441). The assay is classed as biochemical. Conditions: ATP 5 uM, 4 ng JAK3 per reaction, 1 hour 30 °C, chemiluminescence. The procedure, abridged:
as §1

T1 sequence (Q06187 whole entry): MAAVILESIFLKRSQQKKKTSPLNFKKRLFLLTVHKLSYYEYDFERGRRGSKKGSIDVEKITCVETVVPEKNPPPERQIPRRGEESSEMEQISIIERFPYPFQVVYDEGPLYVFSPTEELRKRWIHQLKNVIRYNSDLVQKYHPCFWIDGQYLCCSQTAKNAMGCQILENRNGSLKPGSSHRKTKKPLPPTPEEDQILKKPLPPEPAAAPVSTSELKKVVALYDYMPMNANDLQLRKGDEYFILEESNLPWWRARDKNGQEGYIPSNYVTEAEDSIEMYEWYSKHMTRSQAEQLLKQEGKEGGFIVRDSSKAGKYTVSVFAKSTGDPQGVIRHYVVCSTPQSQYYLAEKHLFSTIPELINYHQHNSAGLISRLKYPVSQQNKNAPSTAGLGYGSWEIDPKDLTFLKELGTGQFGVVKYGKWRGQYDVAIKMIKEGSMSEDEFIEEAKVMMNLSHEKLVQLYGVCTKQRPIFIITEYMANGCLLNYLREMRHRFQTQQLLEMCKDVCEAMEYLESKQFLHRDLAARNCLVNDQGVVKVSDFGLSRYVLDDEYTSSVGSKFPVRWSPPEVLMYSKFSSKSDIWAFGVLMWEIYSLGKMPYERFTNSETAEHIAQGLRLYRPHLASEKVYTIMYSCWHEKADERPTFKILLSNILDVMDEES

On to `C=CC(=O)N1CCC[C@@H](Oc2nc(Nc3cnn(CC)c3)nc3[nH]cc(C#N)c23)C1` [Example 150, (R)-4-((1-acryloylpiperidin-3-yl)oxy)-2-((1-ethyl-1H-pyrazol-4-yl)amino)-7H-pyrrolo[2,3-d]pyrimidine-5-carbonitrile], for which the IC50 (usually the concentration that inhibits the measured activity by half) stood at 1.6 nM in assay [1] and 0.3 nM in assay [2].

In the case of `C=CC(=O)N1CCC[C@@H](Oc2nc(Nc3cnn(CC)c3)nc3[nH]ccc23)C1` [Example 151, (R)-1-(3-((2-((1-ethyl-1H-pyrazol-4-yl)amino)-7H-pyrrolo[2,3-d]pyrimidin-4-yl)oay)piperidin-1-yl)prop-2-en-1-one], the IC50 in assay [1] was 3 nM; in assay [2] it was 0.4 nM.

As to `C=CC(=O)N1CCC[C@@H](Oc2nc(Nc3ccc(N4CCOCC4)cc3)nc3[nH]ccc23)C1` [Example 152, (R)-1-(3-((2-((4-morpholinophenyl)amino)-7H-pyrrolo[2,3-d]pyrimidin-4-yl)oay)piperidin-1-yl)prop-2-en-1-one], the results for the IC50 in assay [1] and in assay [2] were 4.5 nM and 2 nM, respectively.

`C=CC(=O)N1CCC[C@@H](Oc2nc(Nc3cnn(C4CC4)c3)nc3[nH]nc(Cl)c23)C1` [Example 153]: the IC50 in assay [1] was determined as 2.2 nM; in assay [2], 1.6 nM.

Consider `N#C/C(=C\C1CC1)C(=O)N1CCC[C@@H](Oc2nc(Nc3cnn(C4CC4)c3)nc3[nH]nc(Cl)c23)C1` [Example 154, (R,E)-2-(3-((3-chloro-6-((1-cyclopropyl-1H-pyrazol-4-yl)amino)-1H-pyrazolo[3,4-d]pyrimidin-4-yl)oxy)piperidine-1-carbonyl)-3-cyclopropylacrylonitrile], for which the IC50 in assay [1] is 2.5 nM; in assay [2], 54.2 nM.

As to `CCn1cc(Nc2nc(O[C@@H]3CCCN(C(=O)/C(C#N)=C/C4CC4)C3)c3c(Cl)n[nH]c3n2)cn1` [Example 155, (R,E)-2-(3-((3-chloro-6-((1-ethyl-1H-pyrazol-4-yl)amino)-1H-pyrazolo[3,4-d]pyrimidin-4-yl)oxy)piperidine-1-carbonyl)-3-cyclopropylacrylonitrile], the IC50 in assay [1] came out at 2.2 nM; in assay [2], 53.7 nM.

For `CCn1cc(Nc2nc(O[C@@H]3CCCN(C(=O)/C(C#N)=C/C(C)C)C3)c3c(C#N)c[nH]c3n2)cn1` [Example 156, (R,E)-4-((1-(2-cyano-4-methylpent-2-enoyl)piperidin-3-yl)oxy)-2-((1-ethyl-1H-pyrazol-4-yl)amino)-7H-pyrrolo[2,3-d]pyrimidine-5-carbonitrile], the IC50 came to 1.1 nM in assay [1] and 0.5 nM in assay [2].

Take `CCn1cc(Nc2nc(O[C@@H]3CCCN(C(=O)/C(C#N)=C/C4CC4)C3)c3c(C#N)c[nH]c3n2)cn1` [Example 157, (R,E)-4-((1-(2-cyano-3-cyclopropylacryloyl)piperidin-3-yl)oxy)-2-((1-ethyl-1H-pyrazol-4-yl)amino)-7H-pyrrolo[2,3-d]pyrimidine-5-carbonitrile]: the IC50 came to 1.4 nM in assay [1] and 0.6 nM in assay [2].

On to `CC(C)/C=C(\C#N)C(=O)N1CCC[C@@H](Oc2nc(Nc3cnn(C4CC4)c3)nc3[nH]nc(Cl)c23)C1` [Example 158, (R,E)-2-(3-((3-chloro-6-((1-cyclopropyl-1H-pyrazol-4-yl)amino)-1H-pyrazolo[3,4-d]pyrimidin-4-yl)oxy)piperidine-1-carbonyl)-4-methylpent-2-enenitrile], for which the IC50 amounted to 1.2 nM in assay [1] and 2.9 nM in assay [2].

`C=CC(=O)N1CC[C@@H](C)[C@@H](N(C)c2nc(Nc3cnn(CC)c3)nc3[nH]nc(Cl)c23)C1` [Example 159]: the IC50 was found to be 4.5 nM in assay [1] and 27.1 nM in assay [2].

On to `CCn1cc(Nc2nc(N[C@H]3CN(C(=O)/C(C#N)=C/C(C)C)CC[C@H]3F)c3c(Cl)n[nH]c3n2)cn1` [Example 160, (E)-2-((3S,4R)-3-((3-chloro-6-((1-ethyl-1H-pyrazol-4-yl)amino)-1H-pyrazolo[3,4-d]pyrimidin-4-yl)amino)-4-fluoropiperidine-1-carbonyl)-4-methylpent-2-enenitrile], for which the IC50 was determined as 3.4 nM in assay [1] and 1.5 nM in assay [2].

With `CCn1cc(Nc2nc(N[C@H]3CN(C(=O)/C(C#N)=C/C4CC4)CC[C@H]3F)c3c(Cl)n[nH]c3n2)cn1` [Example 161, (E)-2-((3S,4R)-3-((3-chloro-6-((1-ethyl-1H-pyrazol-4-yl)amino)-1H-pyrazolo[3,4-d]pyrimidin-4-yl)amino)-4-fluoropiperidine-1-carbonyl)-3-cyclopropylacrylonitrile], the IC50 in assay [1] was found to be 1.3 nM; in assay [2], 5 nM.

In the case of `CC(C)/C=C(\C#N)C(=O)N1CCC[C@@H](Nc2nc(Nc3cnn(C4CC4)c3)nc3[nH]nc(Cl)c23)C1` [Example 162, (R,E)-2-(3-((3-chloro-6-((1-cyclopropyl-1H-pyrazol-4-yl)amino)-1H-pyrazolo[3,4-d]pyrimidin-4-yl)amino)piperidine-1-carbonyl)-4-methylpent-2-enenitrile], the results for the IC50 in assay [1] and in assay [2] were 4.8 nM and 3 nM, respectively.

Regarding `CC(C)(C)/C=C(\C#N)C(=O)N1CCC[C@@H](Nc2nc(Nc3cnn(C4CC4)c3)nc3[nH]nc(Cl)c23)C1` [Example 163, (R,E)-2-(3-((3-chloro-6-((1-cyclopropyl-1H-pyrazol-4-yl)amino)-1H-pyrazolo[3,4-d]pyrimidin-4-yl)amino)piperidine-1-carbonyl)-4,4-dimethylpent-2-enenitrile], the results for the IC50 in assay [1] and in assay [2] were 1.2 nM and 2.7 nM, respectively.

Take `N#C/C(=C\C1CC1)C(=O)N1CCC[C@@H](Nc2nc(Nc3cnn(C4CC4)c3)nc3[nH]nc(Cl)c23)C1` [Example 164, (R,E)-2-(3-((3-chloro-6-((1-cyclopropyl-1H-pyrazol-4-yl)amino)-1H-pyrazolo[3,4-d]pyrimidin-4-yl)amino)piperidine-1-carbonyl)-3-cyclopropylacrylonitrile]: the results for the IC50 in assay [1] and in assay [2] were 2.2 nM and 8.8 nM, respectively.

Take `N#C/C(=C\C1CCCC1)C(=O)N1CCC[C@@H](Nc2nc(Nc3cnn(C4CC4)c3)nc3[nH]nc(Cl)c23)C1` [Example 165, (R,E)-2-(3-((3-chloro-6-((1-cyclopropyl-1H-pyrazol-4-yl)amino)-1H-pyrazolo[3,4-d]pyrimidin-4-yl)amino)piperidine-1-carbonyl)-3-cyclopentylacrylonitrile]: the results for the IC50 in assay [1] and in assay [2] were 1.9 nM and 2.2 nM, respectively.

In the case of `CCn1cc(Nc2nc(N[C@@H]3CCCN(C(=O)/C(C#N)=C/C4CC4)C3)c3c(Cl)n[nH]c3n2)cn1` [Example 166], the IC50 in assay [1] was found to be 1.2 nM; in assay [2], 5.6 nM.

Take `CCn1cc(Nc2nc(N(C)[C@@H]3CCCN(C(=O)/C(C#N)=C/C4CC4)C3)c3c(Cl)n[nH]c3n2)cn1` [Example 167, (R,E)-2-(3-((3-chloro-6-((1-ethyl-1H-pyrazol-4-yl)amino)-1H-pyrazolo[3,4-d]pyrimidin-4-yl)(methyl)amino)piperidine-1-carbonyl)-3-cyclopropylacrylonitrile]: the IC50 was found to be 1.5 nM in assay [1] and 43.1 nM in assay [2].

As to `CCn1cc(Nc2nc(N(C)[C@@H]3CCCN(C(=O)/C(C#N)=C/C(C)C)C3)c3c(Cl)n[nH]c3n2)cn1` [Example 168], the IC50 was 4.3 nM in assay [1] and 18 nM in assay [2].

With `CCn1cc(Nc2nc(N[C@H]3CN(C(=O)/C(C#N)=C/C4CC4)CC[C@H]3C)c3c(Cl)n[nH]c3n2)cn1` [Example 169, (E)-2-((3R,4R)-3-((3-chloro-6-((1-ethyl-1H-pyrazol-4-yl)amino)-1H-pyrazolo[3,4-d]pyrimidin-4-yl)amino)-4-methylpiperidine-1-carbonyl)-3-cyclopropylacrylonitrile], the IC50 in assay [1] came to 2.2 nM; in assay [2] it was 241 nM.

For `CCn1cc(Nc2nc(N[C@H]3CN(C(=O)/C(C#N)=C/C(C)C)CC[C@H]3C)c3c(Cl)n[nH]c3n2)cn1` [Example 170, (E)-2-((3R,4R)-3-((3-chloro-6-((1-ethyl-1H-pyrazol-4-yl)amino)-1H-pyrazolo[3,4-d]pyrimidin-4-yl)amino)-4-methylpiperidine-1-carbonyl)-4-methylpent-2-enenitrile], the figures for the IC50 in assay [1] and in assay [2] were 2.9 nM and 11.4 nM, respectively.
